Assays:
[1] = In vivo screen designated APCC, cholesterol in rats fed PCC diet with cholic acid; design: species or system male Sprague-Dawley rats; details: blood cholesterol; PCC diet with 1% or 0.5% cholic acid; dosed at 4 PM, sacrificed at 8 AM; dose not stated
Source text: In one in vivo screen designated APCC, male Sprague-Dawley rats (200 to 225 g) were randomly divided into treatment groups and dosed at 4 PM with either vehicle (CMC/Tween) or suspensions of compounds in vehicle. The normal, chow diet was then replaced with the PCC diet with either 1% or 0.5% cholic acid, as indicated. The rats consumed this diet ad libitum during the night and were sacrificed at 8 AM to obtain blood samples for cholesterol analysis using standard procedures. Statistical differences between mean cholesterol values for the same vehicle were determined using analysis of variance followed by Fisher's least significant test.

[2] = target: T1, acyl-CoA: cholesterol acyltransferase (ACAT) (Oryctolagus cuniculus, UniProt G1SFD9); experiment: In vitro inhibition of ACAT (acylation of cholesterol by oleic acid) in rabbit intestinal microsomes; assay type: biochemical; details: radiolabeled oleic acid
T1 construct: tissue preparation containing rabbit intestinal microsomes; from tissue; host or cells: rabbit intestinal microsomes
T1 sequence (G1SFD9 1-524): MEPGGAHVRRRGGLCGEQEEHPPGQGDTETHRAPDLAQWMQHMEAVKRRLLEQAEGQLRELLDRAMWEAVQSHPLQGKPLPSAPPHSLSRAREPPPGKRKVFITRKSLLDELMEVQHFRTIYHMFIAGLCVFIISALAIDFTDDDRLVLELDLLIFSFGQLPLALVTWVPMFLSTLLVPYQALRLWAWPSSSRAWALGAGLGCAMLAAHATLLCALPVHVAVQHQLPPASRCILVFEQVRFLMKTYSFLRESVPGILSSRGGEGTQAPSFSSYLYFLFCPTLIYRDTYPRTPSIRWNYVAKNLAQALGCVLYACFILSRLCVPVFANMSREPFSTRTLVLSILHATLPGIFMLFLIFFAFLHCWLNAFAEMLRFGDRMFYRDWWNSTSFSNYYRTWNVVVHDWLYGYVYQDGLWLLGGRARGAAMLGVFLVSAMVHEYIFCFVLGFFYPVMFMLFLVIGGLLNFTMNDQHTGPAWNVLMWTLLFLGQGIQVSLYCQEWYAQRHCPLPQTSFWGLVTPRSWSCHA
Experimental: The ability of representative compounds of the present invention to inhibit ACAT was measured using an in vitro test more fully described in Field, F. J. and Salone, R. G., Biochemica et Biophysica, 712:557-570 (1982). The test assesses the ability of a test compound to inhibit the acylation of cholesterol by oleic acid by measuring the amount of radiolabeled cholesterol […] formed from radiolabeled oleic acid in a tissue preparation containing rabbit intestinal microsomes. The data appear in Table 1 where they are expressed in IC50 values; i.e., the concentration of test compound required to inhibit 50% expression of the enzyme.

Row | SMILES | IC50 [2] | % Change [1]
1 | CC(C)c1cccc(C(C)C)c1NC(=O)NC[C@H](Cc1ccccc1)NCc1ccccc1O [Example 10] | – | -46%
2 | COc1ccc(CN[C@H](CNC(=O)Nc2c(C(C)C)cccc2C(C)C)CC(C)C)cc1 [Example 6, (S)-(-)-N-[2,6-bis(1-methylethyl)phenyl]-N'-[2-[[(4-methoxyphenyl)methyl]amino]-4-methyl-pentyl]urea] | 57 nM | -25%
3 | COc1ccc(CN[C@H](CNC(=O)Nc2c(C(C)C)cccc2C(C)C)Cc2ccccc2)cc1 [Example 9, (S)-(-)-N-[2,6-Bis(1-methylethyl)phenyl]-N'-[2-[[(4-methoxyphenyl)methyl]amino]-3-phenylpropyl]urea] | – | -33%
4 | COc1ccc(CN[C@@H](CCSC)CNC(=O)Nc2c(C(C)C)cccc2C(C)C)cc1 [Example 7, (S)-(-)-N-[2,6-Bis(1-methylethyl)phenyl]-N'-[2-[[(4-methoxyphenyl)methyl]amino]-4-(methylthio)butyl]urea] | – | -31%

Continued, in another order:

Row | IC50 [2] | SMILES | % Change [1]
5 | 96 nM | CCCC(CCC)(CNC(=O)Nc1c(C(C)C)cccc1C(C)C)NC(=O)c1ccc(OC)cc1 [Example 4] | –
6 | 85 nM | COc1ccc(CN[C@H](CNC(=O)Nc2c(C(C)C)cccc2C(C)C)C(C)C)cc1 [Example 8, (S)-(-)-N[2,6-Bis(1-methylethyl)phenyl]-N'-[2-[[(4-methoxyphenyl]methyl]amino]-3-methylbutyl]urea] | -17%
7 | 510 nM | COc1ccc(C(=O)NC2(CNC(=O)Nc3c(C(C)C)cccc3C(C)C)CCCC2)cc1 [Example 5, N-[1-[[[[[2,6-bis(1-methylethyl)phenyl]amino]carbonyl]amino]methyl]cyclopentyl]-4-methoxybenzamide] | –
